The test system of the experiment is Plasmodium falciparum. Briefly: GSK_TCMDC: Inhibition of Plasmodium falciparum 3D7 in whole erythrocytes, using parasite LDH activity as an index of growth. Type of experiment: functional, organism-based. To be noted: Plasmodium falciparum, 3D7.

As for `CS(=O)(=O)c1ccc(CNCc2ccc(-c3cccc(-c4nc5cc(C(F)(F)F)ccc5[nH]4)c3)cc2)cc1`, the XC50 amounted to 138 nM.
For the compound `COc1ccc(-c2cccc(NC(=O)c3cccc(C#N)c3)c2)cc1CN1CCN(C)CC1`, the XC50 turned out to be 926 nM.
For the compound `CCOC(=O)c1ccc(N=C2SC(=Cc3cc(Br)ccc3O)C(=O)N2C)cc1`, the XC50 worked out at 998 nM.
Compound `CCCCNC(=O)[C@H](CC1CCCCC1)NC(=O)c1ccc(O)c(-c2ccc(Cl)c(Cl)c2)c1` returned an XC50 of 164 nM.
`CC(C)C1C(O)=C(c2ccc3ccccc3c2)C(=O)N1Cc1cccc(F)c1` (configuration not stated) registered an XC50 of 812 nM.
Turning to `COc1ccc(CC(=O)NC(CCN2CCC3(CC2)CN(S(C)(=O)=O)c2ccccc23)c2ccc(Cl)c(Cl)c2)cc1OC` (configuration not stated), the XC50 turned out to be 998 nM.
In turn, `Cc1noc(C)c1-c1ccc2c(Nc3ccc([N+](=O)[O-])cc3)c(C(N)=O)cnc2c1` registered an XC50 of 692 nM.
Compound `O=C(/C=C/c1ccc(Cl)c(Cl)c1)NCCCCN1CCCN(C(=O)Nc2cc(Cl)cc(Cl)c2)CC1` had an XC50 of 949 nM.
With `CN1CCCN(Cc2ccc(-c3ccc(NC(=O)c4cccc(C#N)c4)cc3)cc2)CC1`, the XC50 was determined as 875 nM.
`Cc1cc(N)nc2ccc(-c3cccc(CN)c3)cc12` registered an XC50 of 707 nM.
`CCCCCCN(CCCCCC)CCCCNc1c2ccc(Cl)cc2nc2ccc(OC)cc12` yielded an XC50 of 535 nM.
`COc1ccc2nccc([C@@H](O)CN3CCC(NC(=O)c4cccc(-c5cc(C)no5)c4)CC3)c2c1` returned an XC50 of 345 nM.
`O=C(NC(=O)c1ccccc1)NC1CCN(c2ccnc3cc(Cl)ccc23)C1` (configuration not stated) gave an XC50 of 584 nM.
Turning to `Cn1cc(Br)c(-c2cccc(Nc3ccnc4cc(-c5nccs5)ccc34)c2)n1`, the XC50 amounted to 979 nM.
As for `CC1(C)NC(N)=NC(=N)N1OCCCO`, the XC50 worked out at 221 nM.
Compound `Cc1ncc(CN2CCC(C(=O)Nc3ccc(-c4nc5ccccc5o4)cc3)CC2)s1` returned an XC50 of 393 nM.
With `O=C(Nc1cccc(-c2ccc(-c3nc4ccccc4[nH]3)cc2)c1)c1csnn1`, the XC50 worked out at 1070 nM.
The compound `Cc1cc(N[C@@H](Cc2ccccc2)C(=O)NCc2cccc(F)c2)nc(Nc2ccccc2)n1` displayed an XC50 of 930 nM.
`CCCS(=O)(=O)c1nc(S(=O)(=O)c2ccc(Cl)cc2)c(N2CCCCC2)s1` had an XC50 of 1290 nM.
For the compound `Cc1cccc(Cl)c1S(=O)(=O)Nc1cccc(CCN2CCC(N3CCCCC3)CC2)c1`, the XC50 worked out at 1110 nM.
As for `Cc1ccc(Cn2cnc3cc(C(=O)Nc4ccc(-c5cccc(CN(C)C)c5)cc4)ccc3c2=O)o1`, the figure is 625 nM.
In turn, `CCOC(=O)c1ccc(CC(C)NCC(O)c2cccc(C(F)(F)F)c2)cc1` (configuration not stated) had an XC50 of 216 nM.
`Cc1c(N)ccc2[nH]c(-c3ccc(N)cc3)nc12` gave an XC50 of 1210 nM.
As for `CCOc1c(Br)cc(Cl)cc1CNCCCNc1nc2ccccc2[nH]1`, the XC50 is 689 nM.
As to `Cc1cc2nc(-c3ccc(C(=O)NCc4ccc(C(C)(C)C)cc4)cc3)[nH]c2cc1C`, the XC50 came to 772 nM.
`O=C(Nc1ccc(OC2CCN(Cc3ccc(F)cc3)C2)c(Cl)c1)c1cccs1` (configuration not stated) gave an XC50 of 128 nM.
For `CC(C)NCc1ccc(-c2cccc(-c3nc4cc(C(F)(F)F)ccc4[nH]3)c2)cc1` the value was 262 nM.
As for `Cc1n[nH]c2cc(F)c(-c3cc(OC[C@@H](N)Cc4ccccc4)cnc3-c3ccoc3)cc12`, the figure is 1040 nM; as for `COc1ccccc1C(=O)Nc1cccc(N2CCC(NCc3ccc(-n4cccn4)cc3)CC2)c1`, 1190 nM.
In turn, `O=C(Nc1ccc(C(F)(F)F)cc1)c1cccc(S(=O)(=O)NC2CCN(CC3CCCCC3)C2)c1` (configuration not stated) yielded an XC50 of 690 nM.
For `CN(CCCN(C)c1cc(NC(=O)c2cccc(F)c2)ccn1)Cc1cccc(O)c1`, the XC50 was determined as 1920 nM.
The compound `Cc1c(Cl)ccc2c(C(=O)Nc3ccncc3)cc(-c3cccnc3)nc12` returned an XC50 of 777 nM.
For `N=C(N)NC(=O)Nc1cc(Br)c(Br)c(Br)c1` the value was 809 nM.
`CN1CCN(c2ccnc3ccc(NC(=O)Nc4c(Cl)cccc4Cl)cc23)CC1` yielded an XC50 of 877 nM.
`CC(C)CNC(=O)c1ccnc(-c2ccc(CNC3Cc4ccccc4C3)cc2)c1` came in with an XC50 of 790 nM.
In the case of `Cc1ccc(NC(=O)c2ccc3ncccc3c2)cc1OC1CCN(CCC(C)C)C1` (configuration not stated), the XC50 was 351 nM.
As for `O=C(Nc1ccc(OC(F)(F)F)cc1)NC1CCN(c2ccnc3ccccc23)C1` (configuration not stated), the figure is 244 nM.
Turning to `CCCCCCCNCc1c(O)ccc2c(CNCCCCCCC)c(O)ccc12`, the XC50 stood at 150 nM.
`CCOc1cc(NCCCNc2ncc([N+](=O)[O-])cc2C)nc2ccccc12` gave an XC50 of 692 nM.
Compound `CCOC(=O)c1cc2c(CCN3C(=O)c4ccccc4C3=O)cn(C)c2cc1-c1ccncc1` showed an XC50 of 583 nM.
The compound `COCc1cc(C)nc2sc(C(=O)Nc3cc(C(C)(C)C)ccc3O)c(N)c12` gave an XC50 of 714 nM.
For `O=C(/C=C/c1ccc(Cl)c(Cl)c1)NCCCCCN1CCCN(C(=O)Nc2cc(F)cc(F)c2)CC1`, the XC50 turned out to be 768 nM.
Turning to `O=C(Nc1ccc2c(c1)CCNCC2)c1ccc(-c2ccc(Cl)cc2)cc1`, the XC50 was determined as 814 nM.
As for `CS(=O)(=O)NCCCNCc1ccc(-c2ccc(-c3nc4cc(F)ccc4[nH]3)cc2)cc1`, the figure is 935 nM; as for `Cc1ccc(CNC(=O)[C@H](CC(C)C)Nc2cc(C)nc(NCc3ccccc3C)n2)cc1`, 952 nM.
`COCCOc1cccc(CN2CCC(c3cc4nc(C)cc(C(F)(F)F)n4n3)C2)c1` (configuration not stated) came in with an XC50 of 1330 nM.
As for `COc1cccc(-c2cccc(-c3ccc(NC(=O)c4ccc([N+](=O)[O-])o4)cc3)n2)c1`, the figure is 515 nM.
In turn, `c1ccc(C2=NN=C(c3ccccn3)C3C4CC(C23)C2C3CC(c5ccccc53)C42)nc1` (configuration not stated) showed an XC50 of 853 nM.
Consider `CCC1CN2CCc3c([nH]c4ccccc34)C2CC1CC1=NCCc2c1[nH]c1ccc(OC)cc21` (configuration not stated), for which the XC50 was 641 nM.
`Nc1nnc(-c2ccc(Cl)c(Br)c2)c(N)n1` came in with an XC50 of 1040 nM.
`O=C(Nc1cccc(-c2ccc(-c3nc4cc(C(F)(F)F)ccc4[nH]3)cc2)c1)c1c[nH]cn1` registered an XC50 of 966 nM.
Take `NC(=O)c1cccc(C(=O)Nc2cccc(-c3ccc(-c4nc5ccccc5[nH]4)s3)c2)c1`: the XC50 worked out at 349 nM.
The compound `COc1ccc(-c2cccc(NC(=O)c3cccc(Cl)c3)c2)cc1CN1CCCC1` returned an XC50 of 731 nM.
In turn, `COc1cccc(C2CCN(CCN3CCC(NC(=O)c4ccc(-c5ccc(C(F)(F)F)cc5)cc4)CC3)CC2)c1` came in with an XC50 of 203 nM.
On to `COc1ccc(-c2cccc(NC(=O)c3cccc(F)c3)c2)cc1CN1CCCN(C)CC1`, for which the XC50 was found to be 603 nM.
For `CC1CCN(CCNC(=O)c2ccc3c(=O)n(Cc4ccc(Cl)cc4)c(=S)[nH]c3c2)CC1` the value was 704 nM.
On to `COc1cccc(Nc2nccc(NCC(O)c3ccc(C(F)(F)F)cc3)n2)c1` (configuration not stated), for which the XC50 came out at 659 nM.
`COc1ccc(Cn2c(N3CCN(S(=O)(=O)c4ccc(OC)cc4)CC3)nc3c2c(=O)n(CC2CC2)c(=O)n3CC2CC2)cc1` displayed an XC50 of 892 nM.
In turn, `COc1ccc2nccc([C@@H](O)CN3CCC(NC(=O)C(c4cccs4)N4CCN(c5ccc(F)cc5)CC4)CC3)c2c1` (some centres not stated) returned an XC50 of 817 nM.
On to `C[C@H](CNc1ccnc(Nc2ccc3[nH]c(=O)[nH]c3c2)n1)c1ccccc1`, for which the XC50 was 1310 nM.
`Cc1ccc(S(=O)(=O)N2CCN(C(=O)c3cc(-c4ccccc4)n[nH]3)CC2)cc1` registered an XC50 of 603 nM.
In the case of `O=C(Nc1ccc2c(c1)CCCN2S(=O)(=O)c1cccs1)c1cc([N+](=O)[O-])ccc1Cl`, the XC50 was determined as 845 nM.
Compound `c1cc(OCCN2CCCC2)ccc1CNC1CCN(CC2CCCCC2)CC1` returned an XC50 of 845 nM.
For `O=C(C=Cc1ccc(-c2ccccc2)cc1)N1CCC(CCN2CCC(c3c[nH]c4ccccc34)CC2)CC1` the value was 1120 nM; for `COc1ccc2[nH]ccc(=NN=Cc3ccc(N(C)C)cc3)c2c1`, 799 nM; for `C#CCOc1ccccc1CN1CCC(N2CCc3cc(NC(=O)c4cc(C)on4)ccc32)C1` (configuration not stated), 675 nM.
Regarding `CC(=O)Nc1ccc(CN(Cc2ccc(OC(C)(C)C)cc2)Cc2ccc3c(c2)OCCO3)cc1`, the XC50 is 927 nM.
For the compound `CCOC(=O)N1CCN(C(=O)Nc2ccc(Cl)cc2)CC1`, the XC50 is 1520 nM.
As to `Cc1[nH]c(C)c(-c2ccc(-c3ccc(C(F)F)cc3)nc2)c(=O)c1Cl`, the XC50 is 241 nM.
Take `CN1CCC(Oc2ccc(NC(=O)c3ccc4c(=O)n(Cc5ccccc5)cnc4c3)cc2Cl)CC1`: the XC50 was 954 nM.
Turning to `O=C(Nc1ccc(C(F)(F)F)cc1)c1cc(Br)cnc1NCCCn1ccnc1`, the XC50 stood at 968 nM.
The compound `c1cc(CNCCN2CCNCC2)cc(-c2ccc(-c3nc4ccccc4[nH]3)cc2)c1` registered an XC50 of 1080 nM.
In the case of `CCNc1cc(C)nc(Nc2ccc(NC(=O)c3c(F)cccc3Cl)cc2)n1`, the XC50 was 1120 nM.
Take `Cc1c(C(=O)N[C@@H](C)c2ccccc2)c2cc(O)c(Br)cc2n1C1CCCCC1`: the XC50 is 840 nM.
In turn, `COc1cc(Nc2ccnc3ccc(C(F)(F)F)cc23)ccc1OCCCc1ccccc1` registered an XC50 of 765 nM.
As for `c1ccc(COc2ccc(Nc3ncnc4cnc(-c5ccc(CNc6cccnc6)o5)cc34)cc2)cc1`, the figure is 857 nM; as for `CCCCOc1cc(OC)c2ccccc2c1CCNCCCCNCCc1c(OCCCC)cc(OC)c2ccccc12`, 1050 nM.
Turning to `CC1CCCC(C)N1C[C@@H](O)CNS(=O)(=O)c1cccc(C(F)(F)F)c1` (some centres not stated), the XC50 stood at 692 nM.
For `CCc1ccc(NC(=O)N(CCCN2CCN(C)CC2)Cc2csc(-c3ccc(CNCc4ccccc4)cc3)n2)cc1` the value was 1010 nM; for `COc1ccc(Nc2nc(NCc3cccnc3)cc(-c3ccc(OC)cc3)n2)cc1`, 1400 nM.
With `COc1ccccc1-c1nc2c(ccc3nc(N)nc(N)c32)[nH]1`, the XC50 was found to be 176 nM.
Compound `O=C(/C=C/c1ccccc1Cl)Nc1ccc(Br)c(OCCN2CCCCC2)c1` gave an XC50 of 168 nM.
As for `CCCCCCCN1CCC(CC(=O)Nc2ccnc3ccc(OC)cc23)CC1`, the XC50 was 722 nM.
As for `COc1ccc(CNc2nc(NCCc3ccccc3)c3cc(OC)c(OC)cc3n2)cc1OC`, the XC50 worked out at 180 nM.
As for `Cc1cccc2nc(-c3cccc(-c4ccc(NC(=O)c5ccc(=O)[nH]n5)cc4)c3)[nH]c12`, the figure is 857 nM; as for `COc1cc(C)nc2ccc(NC(=O)Nc3ccccc3[N+](=O)[O-])cc12`, 837 nM.
Consider `O=C(/C=C/c1ccc(Cl)c(Cl)c1)NCCCCCN1CCC(NC(=O)c2ccc(F)c(F)c2)CC1`, for which the XC50 was 788 nM.

The values are drawn from ChEMBL document CHEMBL1157539, “Thousands of chemical starting points for antimalarial lead identification” (Nature, 2010).
